Data from ChEMBL document CHEMBL3272079, “Synthesis and preliminary pharmacological activity of aminoalkoxy isosteres of glycolate ester anticholinergics” (J Med Chem, 1977).
Counter-ions that a name gives are not always drawn. Active and inactive are the calls of the source. The calls are words filed in the database; no cut-off is given here.

Species: Rattus norvegicus
Assay: animal or person
Assay type: functional
Details: Wistar, ip, route intraperitoneal
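Wherever pD'2 is given: muscarinic receptor antagonism measured as block of acetylcholine-evoked contraction in isolated jejunum, tissue exposed to test compound for 2 min before the acetylcholine challenge.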
Description: Anticataleptic activity in albino Wistar rat assessed as inhibition of perphenazine-induced catatonia at 2 mg/kg, ip preincubated for 15 mins followed by perphenazine challenge measured at 3 hrs relative to control

| Compound | inhibition in vivo at 2 mg/kg [%] |
| --- | --- |
| C=CCN(C)CCOCC(O)(c1ccccc1)c1ccccc1 | 0 |
| CN(C)CCCOCC(O)(c1ccccc1)c1ccccc1 | 17 |
| CN(C)CCOCC(O)(c1ccccc1)c1ccccc1 | 8 |
| CCN1CCCC(OCC(O)(c2ccccc2)c2ccccc2)C1 (configuration not stated) | 0 |
| C=CCN(CC)CCOCC(O)(c1ccccc1)c1ccccc1 | 0 |
| CN1CCC(OCC(O)(c2ccccc2)c2ccccc2)CC1 [listing 1 of 3 here] | 0 |
| OC(COC1CN2CCC1CC2)(c1ccccc1)c1ccccc1 (configuration not stated) | 48 |
| CN1CCCC(OCC(O)(c2ccccc2)c2ccccc2)C1 (configuration not stated) | 17 |
| CN1[C@@H]2CC[C@H]1C[C@H](OC(=O)C(CO)c1ccccc1)C2 (some centres not stated) | 27 |
| CCN(CC)CCOCC(O)(c1ccccc1)c1ccccc1 [listing 1 of 3 here] | 0 |
| CN1CCC(OCC(O)(c2ccccc2)c2ccccc2)C1 (configuration not stated) | 0 |
| CN1[C@@H]2C[C@@H](OC(=O)[C@H](CO)c3ccccc3)C[C@H]1[C@@H]1O[C@@H]12 [SCOPOLAMINE HYDROBROMIDE] | 71 |

Species: Rattus norvegicus
Assay: animal or person
Assay type: functional
Details: Wistar, ip, route intraperitoneal
Remark: another data set of the same source
Description: Anticataleptic activity in albino Wistar rat assessed as inhibition of perphenazine-induced catatonia at 2 mg/kg, ip preincubated for 15 mins followed by perphenazine challenge measured at 2 hrs relative to control

| Compound | inhibition in vivo at 2 mg/kg [%] |
| --- | --- |
| C=CCN(C)CCOCC(O)(c1ccccc1)c1ccccc1 | 17 |
| CN(C)CCCOCC(O)(c1ccccc1)c1ccccc1 | 54 |
| CN(C)CCOCC(O)(c1ccccc1)c1ccccc1 | 21 |
| CCN1CCCC(OCC(O)(c2ccccc2)c2ccccc2)C1 (configuration not stated) | 0 |
| C=CCN(CC)CCOCC(O)(c1ccccc1)c1ccccc1 | 0 |
| CN1CCC(OCC(O)(c2ccccc2)c2ccccc2)CC1 [listing 1 of 3 here] | 7 |
| OC(COC1CN2CCC1CC2)(c1ccccc1)c1ccccc1 (configuration not stated) | 56 |
| CN1CCCC(OCC(O)(c2ccccc2)c2ccccc2)C1 (configuration not stated) | 54 |
| CN1[C@@H]2CC[C@H]1C[C@H](OC(=O)C(CO)c1ccccc1)C2 (some centres not stated) | 30 |
| CCN(CC)CCOCC(O)(c1ccccc1)c1ccccc1 [listing 1 of 3 here] | 0 |
| CN1CCC(OCC(O)(c2ccccc2)c2ccccc2)C1 (configuration not stated) | 8 |
| CN1[C@@H]2C[C@@H](OC(=O)[C@H](CO)c3ccccc3)C[C@H]1[C@@H]1O[C@@H]12 [SCOPOLAMINE HYDROBROMIDE] | 83 |

Species: Rattus norvegicus
Assay: animal or person
Assay type: functional
Details: Wistar, ip, route intraperitoneal
Remark: another data set of the same source
Description: Anticataleptic activity in albino Wistar rat assessed as inhibition of perphenazine-induced catatonia at 2 mg/kg, ip preincubated for 15 mins followed by perphenazine challenge measured at 0.5 hrs relative to control

| Compound | inhibition in vivo at 2 mg/kg [%] |
| --- | --- |
| C=CCN(C)CCOCC(O)(c1ccccc1)c1ccccc1 | 79 |
| CN(C)CCCOCC(O)(c1ccccc1)c1ccccc1 | 100 |
| CN(C)CCOCC(O)(c1ccccc1)c1ccccc1 | 75 |
| CCN1CCCC(OCC(O)(c2ccccc2)c2ccccc2)C1 (configuration not stated) | 12 |
| C=CCN(CC)CCOCC(O)(c1ccccc1)c1ccccc1 | 8 |
| CN1CCC(OCC(O)(c2ccccc2)c2ccccc2)CC1 [listing 1 of 3 here] | 80 |
| OC(COC1CN2CCC1CC2)(c1ccccc1)c1ccccc1 (configuration not stated) | 96 |
| CN1CCCC(OCC(O)(c2ccccc2)c2ccccc2)C1 (configuration not stated) | 92 |
| CN1[C@@H]2CC[C@H]1C[C@H](OC(=O)C(CO)c1ccccc1)C2 (some centres not stated) | 87 |
| CCN(CC)CCOCC(O)(c1ccccc1)c1ccccc1 [listing 1 of 3 here] | 38 |
| CN1CCC(OCC(O)(c2ccccc2)c2ccccc2)C1 (configuration not stated) | 50 |
| CN1[C@@H]2C[C@@H](OC(=O)[C@H](CO)c3ccccc3)C[C@H]1[C@@H]1O[C@@H]12 [SCOPOLAMINE HYDROBROMIDE] | 96 |

Species: Rattus norvegicus
Assay: animal or person
Assay type: functional
Details: Wistar, ip, route intraperitoneal
Remark: another data set of the same source
Description: Anticataleptic activity in albino Wistar rat assessed as inhibition of perphenazine-induced catatonia at 2 mg/kg, ip preincubated for 15 mins followed by perphenazine challenge measured at 1 hr relative to control

| Compound | inhibition in vivo at 2 mg/kg [%] |
| --- | --- |
| C=CCN(C)CCOCC(O)(c1ccccc1)c1ccccc1 | 25 |
| CN(C)CCCOCC(O)(c1ccccc1)c1ccccc1 | 71 |
| CN(C)CCOCC(O)(c1ccccc1)c1ccccc1 | 21 |
| CCN1CCCC(OCC(O)(c2ccccc2)c2ccccc2)C1 (configuration not stated) | 0 |
| C=CCN(CC)CCOCC(O)(c1ccccc1)c1ccccc1 | 0 |
| CN1CCC(OCC(O)(c2ccccc2)c2ccccc2)CC1 [listing 1 of 3 here] | 37 |
| OC(COC1CN2CCC1CC2)(c1ccccc1)c1ccccc1 (configuration not stated) | 85 |
| CN1CCCC(OCC(O)(c2ccccc2)c2ccccc2)C1 (configuration not stated) | 67 |
| CN1[C@@H]2CC[C@H]1C[C@H](OC(=O)C(CO)c1ccccc1)C2 (some centres not stated) | 56 |
| CCN(CC)CCOCC(O)(c1ccccc1)c1ccccc1 [listing 1 of 3 here] | 0 |
| CN1CCC(OCC(O)(c2ccccc2)c2ccccc2)C1 (configuration not stated) | 21 |
| CN1[C@@H]2C[C@@H](OC(=O)[C@H](CO)c3ccccc3)C[C@H]1[C@@H]1O[C@@H]12 [SCOPOLAMINE HYDROBROMIDE] | 96 |

Tested on: not listed separately
Assay: Octanol-phosphate buffer partition coefficient, Kp of the compound at pH 7.4
Assay type: physicochemical
Details: not given

| Compound | Kp |
| --- | --- |
| CCN(CC)CCOCC(O)(c1ccccc1)c1ccccc1 [listing 2 of 3 here] | 5.6 |
| CCN(CC)CCOC(=O)C(O)(c1ccccc1)c1ccccc1.Cl | 0.26 |
| CN1CCC(OCC(O)(c2ccccc2)c2ccccc2)CC1 [listing 2 of 3 here] | 3.1 |

Tested on: Oryctolagus cuniculus
Assay: Central dopaminergic activity in New Zealand rabbit assessed as change in colonic temperature at 5 mg/kg, iv measured every 15 mins for 2 hrs by thermistor probe attached telethermometric analysis
Assay type: functional, organism-based
Parameters: dose 5 mg/kg
Details: not given

| Compound | Activity |
| --- | --- |
| CCN(CC)CCOC(=O)C(O)(c1ccccc1)c1ccccc1.Cl | inactive |
| OC(COC1CN2CCC1CC2)(c1ccccc1)c1ccccc1 (configuration not stated) | inactive |
| CCN(CC)CCOCC(O)(c1ccccc1)c1ccccc1 [listing 3 of 3 here] | inactive |

Species: Rattus norvegicus
Assay: not given
Details: Wistar, Jejunum

| Compound | pD'2 |
| --- | --- |
| C[N+](C)(C)CCOCC(O)(c1ccccc1)c1ccccc1 | 5.49 |
| C=CCN(C)CCOCC(O)(c1ccccc1)c1ccccc1 | 4.09 |
| CN(C)CCCOCC(O)(c1ccccc1)c1ccccc1 | 5.02 |
| CN(C)CCOCC(O)(c1ccccc1)c1ccccc1 | 4.68 |
| CCN1CCCC(OCC(O)(c2ccccc2)c2ccccc2)C1 (configuration not stated) | 4.95 |
| C=CCN(CC)CCOCC(O)(c1ccccc1)c1ccccc1 | 5.13 |
| CC[N+]1(C)CCCC(OCC(O)(c2ccccc2)c2ccccc2)C1 (configuration not stated) | 5 |
| C[N+]1(C)CCC(OCC(O)(c2ccccc2)c2ccccc2)CC1 | 7.26 |
| C[N+]12CCC(CC1)C(OCC(O)(c1ccccc1)c1ccccc1)C2 (configuration not stated) | 6.18 |
| CN1CCC(OCC(O)(c2ccccc2)c2ccccc2)CC1 [listing 3 of 3 here] | 6.24 |
| OC(COC1CN2CCC1CC2)(c1ccccc1)c1ccccc1 (configuration not stated) | 6.58 |
| CN1CCCC(OCC(O)(c2ccccc2)c2ccccc2)C1 (configuration not stated) | 4.9 |
| CN1[C@@H]2CC[C@H]1C[C@H](OC(=O)C(CO)c1ccccc1)C2 (some centres not stated) | 7.3 |
| CN1CCC(OCC(O)(c2ccccc2)c2ccccc2)C1 (configuration not stated) | 5.58 |
| C[N+]1(C)CCCC(OCC(O)(c2ccccc2)c2ccccc2)C1 (configuration not stated) | 5.68 |
| CCN(CC)CCOCC(O)(c1ccccc1)c1ccccc1 [listing 3 of 3 here] | 4.92 |
| CN1[C@@H]2C[C@@H](OC(=O)[C@H](CO)c3ccccc3)C[C@H]1[C@@H]1O[C@@H]12 [SCOPOLAMINE HYDROBROMIDE] | 5.31 |
| CC[N+](C)(CC)CCOCC(O)(c1ccccc1)c1ccccc1 | 6.92 |
